Legend:
CD34+ HSPCs = assay: HSPC expansion and HSPC-pDC differentiation culture (cell numbers, viability, HSPC-pDC yield); format: cell-based, human
Description: Depending on optimization regiments, freshly or cryo-preserved HSPCs from various sources were differentiated to HSPC-pDCs using different types of medium. For STD and LD/RPMI conditions, HSPCs were cultured in RPMI 1640 (Lonza) supplemented with 10% heat-inactivated fetal calf serum (FCS) (HyClone®), 600 μg/mL L-Glutamine (Sigma), 200 U/mL penicillin and 100 μg/mL streptomycin (Gibco®, Life Technologies). For STD conditions, HSPCs were cultured at a fixed volume during pDC differentiation, versus a fixed density of 0.5-5×10^6 cells/mL for the LD condition. For serum-free (SFEM II) or CGMP serum-free medium (DC medium) conditions, HSPCs were cultured in SFEM II or DC medium at low density (0.5-5×10^6 cells/mL). […] All cytokines are from Peprotech. In addition, the small molecule inhibitor StemRegenin 1 (SR1, […] Technologies) was added at a concentration of 1 μM. For serum-free medium conditions, a concentration of 20 μg/mL streptomycin and 20 U/mL penicillin (Gibco, Life Technologies) was added. Moreover, for the CGMP DC medium condition, 50 μg/mL of ascorbic acid was added. Cells were cultured at 37° C., 95% humidity, and 5% CO2 for up to 21 days depending on optimizations. For the fixed density conditions, medium was replenished every 2-4 day depending on the growth of the HSPCs. Total cell numbers during expansion and differentiation of HSPCs was determined using a TC20 Automated Cell Counter (Bio-Rad). At the end of culture, HSPC-pDCs were enriched using a negative selection kit, according to manufacturer's instructions (EasySep Human Plasmacytoid Dendritic Cell Enrichment kit, […] Technologies).
De-identified umbilical cord blood (UCB) samples were obtained following scheduled caesarean section deliveries of healthy infants at Department of Gynecology and Obstetrics, Skejby University Hospital. Consent was obtained from the mothers. CD34^+ cord blood HSPCs (CB-HSPC) were subsequently purified using EasySep Human Cord Blood CD34 Positive Selection kit II, according to manufacturer's instructions ([…] Technologies). Briefly, a pre-enrichment of CD34+ cells was performed were bi-specific antibodies targeting unwanted cells were used during standard Ficoll-Hypaque (GE Healthcare) density-gradient centrifugation. CD34+ cells were subsequently isolated using anti-CD34 immunomagnetic beads (positive selection). CD34^+ CB HSPCs were either freshly used or cryo-preserved until use.

HSPC-pDCs = assay: TLR7 or TLR9 agonist activation, functional type I IFN (HEK-blue IFN-α/β reporter); format: cell-based, human
Description: Priming of HSPC-pDCs was performed as previously described. Isolated HSPC-pDCs were primed in the same medium as the differentiation was done in (either RPMI 1640, SFEM II or DC medium). […] For HSPC-pDCs differentiated in DC medium, medium was also supplemented with 50 μg/mL ascorbic acid. Cells were primed for three days before being phenotypically or functionally characterized.
To analyze the capacity of HSPC-pDCs to produce type I IFN, 4×10^4 pDCs were seeded out in 96-well plates in the same medium as the differentiation was done in (either RPMI 1640, SFEM II or DC medium). […] Cells were subsequently stimulated with agonists directed against TLR7 (R837, tlrl-imq, InvivoGen) or TLR9 (CpG-A 2216, tlrl-2216-1, InvivoGen) at a final concentration of 2.5 μg/mL. Twenty hours post stimulation supernatants were harvested and cryopreserved at −20° C. until analysis.
To quantify functional type I IFN, the reporter cell line HEK-blue IFN-α/β was utilized, according to the manufacturer's instructions (InvivoGen). […] Activity of SEAP was assessed using QUANTI-Blue (InvivoGen). Color change was measured at an optical density (OD) of 620 nm using the SpectraMax iD3 platereader (Molecular Devices). […]

O=C1O[C@H]([C@@H](O)CO)C(O)=C1O [ascorbic acid]
viability of HSPC-pDCs isolated at day 21 (CD34+ HSPCs; AA addition versus 72.8%±3.2% for DC medium alone): 92.0% | percentage of HSPC-pDCs of the total population of cells (CD34+ HSPCs; AA supplementation of DC medium): without affecting | yield of HSPC-pDCs isolated at day 21 (CD34+ HSPCs; DC medium+AA versus 0.5×10^9+0.3×10^9 for DC medium alone): 1.0×10^9 HSPC-pDCs per 0.1×10^6 CD34+ H | expansion during HSPC-pDC differentiation (CD34+ HSPCs; DC medium+AA versus 13,456 fold (±6,953) for DC medium alone, 1×10^5 HSPCs seeded): 33,554 fold | viability of expanding HSPCs during culture (CD34+ HSPCs; DC medium+AA vs DC medium alone, in particular Day 12+): significantly improved | type I IFN response to synthetic TLR7 and TLR9 agonists (HSPC-pDCs; HSPC-pDCs from AA culture, isolated day 16 and 21, in contrast to DC medium alone): robust type I IFN response | cHSPC-pDC TLR7 and TLR9-mediated type I IFN production (HSPC-pDCs; cHSPC-pDCs from peripheral blood cHSPCs, SFEM II, DC medium or DC medium+AA): required
